Assay [1] addresses T1, hyaluronidase (Type IV-S) (Bos taurus, UniProt Q2YDK3).
T1 construct: purchased SIGMA Type IV-S; host or cells: bovine testes
T1 sequence (Q2YDK3 36-553): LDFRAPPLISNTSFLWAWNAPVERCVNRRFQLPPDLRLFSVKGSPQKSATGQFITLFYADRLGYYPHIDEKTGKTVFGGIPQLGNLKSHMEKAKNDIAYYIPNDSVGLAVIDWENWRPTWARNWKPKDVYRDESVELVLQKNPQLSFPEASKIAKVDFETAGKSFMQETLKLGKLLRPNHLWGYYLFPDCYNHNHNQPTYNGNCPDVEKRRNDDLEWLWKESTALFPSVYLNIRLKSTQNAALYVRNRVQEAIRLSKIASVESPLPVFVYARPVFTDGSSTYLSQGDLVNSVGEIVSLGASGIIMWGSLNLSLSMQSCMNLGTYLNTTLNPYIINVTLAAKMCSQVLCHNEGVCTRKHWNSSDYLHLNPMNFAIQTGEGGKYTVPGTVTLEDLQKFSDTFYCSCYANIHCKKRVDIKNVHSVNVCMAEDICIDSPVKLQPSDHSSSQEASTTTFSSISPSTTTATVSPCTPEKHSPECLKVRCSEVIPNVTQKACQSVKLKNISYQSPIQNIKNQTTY
The experiment in a line: Hyaluronidase activity inhibitory action test. The format is biochemical, bovine. Particulars: read-out: Hyaluronidase activity inhibition rate; for inhibition at 250 µM: 250 μmol/L; for inhibition at 1000 µM: 1000 μmol/L. As for the experimental part:
To 0.2 mL of each of test samples (Samples 1 to 3, see Table 27 below for final concentrations) dissolved in 0.1 mol/L acetate buffer solution (pH 3.5), 0.1 mL of hyaluronidase solution (available from SIGMA, Type IV-S, from bovine tests, 400 NF units/mL) was added, and the mixture was statically placed at 37° C. for 20 minutes. Furthermore, 0.2 mL of 2.5 mmol/L calcium chloride was added as an activator, and the mixture was statically placed at 37° C. for 20 minutes. To this was added 0.5 mL of 0.8 mg/mL sodium hyaluronate solution (from rooster comb), and the mixture was reacted at 37° C. for 40 minutes. After that, 0.2 mL of 0.4 mol/L sodium hydroxide was added to stop the reaction, it was cooled, and then 0.2 mL of boric acid solution was added to each reaction solution, which was boiled for 3 minutes. After cooling on ice, 6 mL of p-DABA reagent was added and reacted at 37° C. for 20 minutes. After that, the absorbance at a wavelength of 585 nm was measured.
In addition, as a blank, the same operation and absorbance measurement were performed in the case in which no enzyme solution was added. Furthermore, as a control, the same measurement was performed in the case in which distilled water was added without adding the sample solution. From the obtained results, the hyaluronidase activity inhibition rate (%) was calculated using the following equation.
Terms in the equation represent the following respective ones. • A: Absorbance at wavelength 585 nm with test sample addition and with enzyme addition • B: Absorbance at wavelength 585 nm with test sample addition and without enzyme addition • C: Absorbance at wavelength 585 nm without sample addition and with enzyme addition • D: Absorbance at wavelength 585 nm without sample addition and without enzyme addition

Another assay concerns the target T2, DPP IV (rhCD26) (Homo sapiens, UniProt P27487).
T2 construct: purchased R&D Systems
The experiment in a line: DPP IV activity inhibitory action test. The format is biochemical. Particulars: read-out: DPP IV activity inhibition rate; for inhibition at 2500 µM: 2500 μmol/L; for inhibition at 10000 µM: 10000 μmol/L. On the procedure: In a 96-well plate, 25 μL of each of test samples (Samples 1 to 3, see Table 3 below for final concentrations) prepared with 25 mM Tris-HCl buffer solution (pH 8.0) and 25 μL of 0.4 μg/mL DPP IV (available from R&D Systems, rhCD26) solution prepared with the above buffer solution were mixed and preincubated at 37° C. for 5 minutes. After that, 50 μL of 0.5 mM Gly-Pro-p-NA-Tos (available from PEPTIDE […], INC.) prepared with the above buffer solution was added, and the mixture was reacted at 37° C. for 90 minutes. After the reaction was completed, the absorbance at a wavelength of 415 nm was measured. From the obtained results, the DPP IV activity inhibition rate (%) was calculated using the following equation.
(§1) Terms in the equation represent the following respective ones. • A: Absorbance at wavelength 415 nm without sample addition and with enzyme addition • B: Absorbance at wavelength 415 nm without sample addition and without enzyme addition • C: Absorbance at wavelength 415 nm with test sample addition and with enzyme addition • D: Absorbance at wavelength 415 nm with test sample addition and without enzyme addition

The target in the next assay is T3, elastase type III (Sus scrofa, UniProt P00772).
T3 construct: purchased SIGMA-Aldrich type III
The experiment in a line: Elastase activity inhibitory action test. Type of assay: biochemical. Particulars: read-out: Elastase activity inhibition rate; for inhibition at 1000 µM: 1000 μmol/L. On the procedure:
In a 96-well microplate, 50 μL of each of test samples (Samples 1 to 3, see Table 8 below for final concentrations) prepared with 0.2 mol/L Tris-HCl buffer solution (pH 8.0) and 50 μL of 20 μg/mL elastase type III (available from SIGMA-Aldrich) solution was mixed. After that, 100 μL of 0.4514 mg/mL N-succinyl-Ala-Ala-Ala-p-nitroanilide (available from SIGMA-Aldrich) prepared with the above buffer solution was added, and the mixture was reacted at 25° C. for 15 minutes. After the reaction was completed, the absorbance at a wavelength of 415 nm was measured. In addition, a blank test without enzyme addition was performed in the same manner and correction was made. From the obtained results, the elastase activity inhibition rate (%) was calculated using the following equation.
as §1

SMILES strings stand for the structures.

T3 sequence (P00772 27-266): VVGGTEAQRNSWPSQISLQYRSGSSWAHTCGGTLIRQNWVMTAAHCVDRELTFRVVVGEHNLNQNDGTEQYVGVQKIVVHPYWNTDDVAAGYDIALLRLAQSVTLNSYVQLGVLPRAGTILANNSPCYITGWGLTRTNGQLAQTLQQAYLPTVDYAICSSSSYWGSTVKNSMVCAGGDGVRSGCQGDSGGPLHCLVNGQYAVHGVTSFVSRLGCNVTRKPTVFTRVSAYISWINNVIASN
T2 sequence (P27487 whole entry): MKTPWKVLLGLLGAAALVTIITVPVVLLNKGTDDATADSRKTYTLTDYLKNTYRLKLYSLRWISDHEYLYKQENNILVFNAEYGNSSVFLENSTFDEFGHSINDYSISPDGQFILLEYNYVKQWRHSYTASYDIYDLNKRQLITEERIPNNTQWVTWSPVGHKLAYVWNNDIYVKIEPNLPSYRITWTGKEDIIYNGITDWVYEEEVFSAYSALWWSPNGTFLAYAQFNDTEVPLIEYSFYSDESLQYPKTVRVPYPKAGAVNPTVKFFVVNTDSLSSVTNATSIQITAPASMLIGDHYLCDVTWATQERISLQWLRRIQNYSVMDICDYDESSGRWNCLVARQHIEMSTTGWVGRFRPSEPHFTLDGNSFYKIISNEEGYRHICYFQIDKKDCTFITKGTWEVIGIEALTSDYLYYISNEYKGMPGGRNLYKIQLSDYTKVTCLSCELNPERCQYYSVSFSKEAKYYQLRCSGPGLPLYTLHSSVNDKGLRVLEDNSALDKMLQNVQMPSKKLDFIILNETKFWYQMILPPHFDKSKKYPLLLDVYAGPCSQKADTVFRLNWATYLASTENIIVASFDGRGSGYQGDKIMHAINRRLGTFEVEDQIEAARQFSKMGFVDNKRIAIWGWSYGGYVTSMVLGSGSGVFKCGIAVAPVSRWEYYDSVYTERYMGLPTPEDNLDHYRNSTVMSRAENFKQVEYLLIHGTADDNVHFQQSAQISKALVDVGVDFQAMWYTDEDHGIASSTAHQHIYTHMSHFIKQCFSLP

Usually inhibition stands for the share of the control response that was lost under treatment. Turning to `O=C(O)CCc1ccccc1` [Sample 3, 3-phenylpropionic acid], in assay [1] (62.5 μmol/L), the inhibition at 62.5 µM was determined as 16.5%. In addition, in assay [1], the inhibition at 250 µM was 20.2% and the inhibition at 1000 µM came out at 41.1%. Also, at DPP IV (rhCD26), the inhibition at 2500 µM came out at 4.1% and the inhibition at 10000 µM was determined as 99.8%. The inhibition at 1000 µM at elastase type III turned out to be 5%.

Take `O=C(O)CCc1ccc(O)cc1` [Sample 2, 3-(4-Hydroxyphenyl)propionic acid]: the inhibition at 1000 µM in assay [1] worked out at 15.8%; at elastase type III, 4.2%. Also, the inhibition at 10000 µM on DPP IV (rhCD26) came to 96.9%.

As for `O=C(O)CCc1ccc(O)c(O)c1` [Sample 1, 3,4-Dihydroxyhydrocinnamic acid], the inhibition at 250 µM in assay [1] amounted to 4.9%; at elastase type III (250 μmol/L), 3.2%. Moreover, the inhibition at 1000 µM in assay [1] was found to be 19.9%; on elastase type III, 8.1%. For the same compound, the inhibition at 625 µM on DPP IV (rhCD26) (625 μmol/L) amounted to 7.2%. The inhibition at 2500 µM on DPP IV (rhCD26) amounted to 17.6%. Besides, the inhibition at 10000 µM at DPP IV (rhCD26) amounted to 97.1%. Also, at elastase type III (500 μmol/L), the inhibition at 500 µM was 6.7%.
